What all share (format): cell-based
In one data set the target is Brd2 (Homo sapiens, UniProt P25440). Briefly: Concentration-dependent BET degradation, immunoblot. Also on record: endogenous in cells; host or cells: HEK293 (CRL-1573), HeLa (CCL-2). Particulars: 1 nM-10 μM. (In general: A western blot detects proteins with antibodies after separation by electrophoresis.)
Another data set deals with MV4-11 cells. Briefly: CellTiter-Glo anti-proliferative assay. Particulars: MV4-11, 72 h, 5 μM and below compound. As to the method:
The anti-proliferative effects of representative compounds and other compounds was measured using the CellTiter-Glo assay (Promega). MV4-11 cells were incubated in a sterile, white, clear-bottomed 384-well cell-culture microplate (Greiner Bio-one), at 2× concentration in RPMI media and a volume of 25 μl. The next day, test compounds were serially diluted in RPMI media to 2× concentration, then added to cells to make a final volume of 50 μl. After a 72 h incubation 25 μl of CellTiter-Glo reagent was added to each well. Following 15 minute incubation the luminescence signal was read on a Pherastar FS. The final concentration of assay components are as follows: 3×10^5 cells/ml, 0.05% DMSO, 5 μM and below compound. Data (FIG. 8) was processed and dose-response curves generated using Prism 8 (Graphpad).

A further data set deals with T1, Brd4 (L) (Homo sapiens, UniProt O60885).
T1 construct: endogenous in cells; host or cells: HEK293 (CRL-1573), HeLa (CCL-2)
Description: Time-dependent BET degradation, immunoblot. On the set-up: Dmax: dose or concentration left out as unconfirmed. To be noted: HeLa; for Abs. T1/2 / T1/2: 1 μM; for Abs. T1/2: time to deplete 50% of the protein relative to DMSO; for T1/2: time to reach 50% of the Dmax. As to the method:
(§1) Immunoblotting. Proteins were separated by SDS-PAGE on NuPage 4-12% Bis-Tris gels, followed by transfer to Amersham Protran 0.45 NC nitrocellulose membrane (GE Healthcare) using wet transfer. Membranes were blocked using 5% w/v milk in Tris-buffered saline (TBS) with 0.1% Tween-20. Blots were probed (overnight at 4 °C) using anti-Brd2 (Abcam ab139690, 1:2,000 dilution), anti-Brd3 (Abcam ab50818, 1:500 dilution), and anti-Brd4 (Abcam ab128874, 1:1,000 dilution) primary antibodies, as appropriate. The next day, blots were washed with TBST and incubated (1 h at Room temperature) with anti-Tubulin hFAB-rhodamine (BioRad, 12004166) primary antibody, and either anti-rabbit IRDye 800CW (Licor 1:1,000 dilution) or anti-mouse IRDye 800CW (Licor 1:1,000 dilution) secondary antibody. Blots were developed using a Bio-Rad ChemiDoc MP Imaging System, and band quantification was performed using Image Studio software (LiCor). Band intensities were normalized to the tubulin loading control and reported as % of the average 0.1% DMSO vehicle intensity. Degradation data was plotted and analysed using Prism (Graphpad, version 8).
(§2) HEK293 (0.5×10^6) cells were seeded in standard 6-well plates (2 mL medium) overnight before treatment with compounds at 1 μM concentration, with a final DMSO concentration of 0.1% v/v. After incubation for the desired time (0-24 hrs), cells were washed with DPBS (Gibco) and lysed using 85 μL RIPA buffer (Sigma-Aldrich) supplemented with complete Mini EDTA-free protease inhibitor cocktail (Roche) and benzonase. Lysates were clarified by centrifugation (20000 g, 10 min, 4° C.) and the total protein content of the supernatant was quantified using a Bradford colorimetric assay. Samples were prepared using equal amounts of total protein and LDS sample buffer (Invitrogen). Band intensities were normalized to the tubulin loading control and reported as % of the average 0.1% DMSO vehicle intensity. Degradation data was plotted and analysed using Prism (Graphpad, version 8).
(§3) MZ1 and 11JQ17 were used at 1 μM (4 h) for positive and negative controls, respectively. […] T1/2 (h) is the time required to deplete 50% of the protein relative to DMSO.

A further data set addresses T2, Brd4 (S) (Homo sapiens, UniProt O60885).
T2 construct: endogenous in cells; host or cells: HEK293 (CRL-1573), HeLa (CCL-2)
Description: Time-dependent BET degradation, immunoblot. Particulars: HeLa; for Abs. T1/2 / T1/2: 1 μM; for Abs. T1/2: time to deplete 50% of the protein relative to DMSO; for T1/2: time to reach 50% of the Dmax. On the set-up: Dmax: dose or concentration left out as unconfirmed. How it is done:
as §1, §2, §3

The target in another data set is T3, Brd4 (Homo sapiens, UniProt O60885).
T3 construct: immunoblot analysis of Brd4 following 4 h treatment of HEK293 cells; endogenous in cells; host or cells: HEK293 (CRL-1573)
Briefly: Immunoblot analysis of Brd4 in HEK293 cells (prodrug activity, negative SAR). Particulars: HEK293, 1 μM, 4 h, n=3. How it is done:
as §1, with “8). […]” for “8).”
HEK293 (1×10^6) cells incubated with DMSO, 1 μM 11JQ15 or 1 μM 11JQ17 for 4 h with a final DMSO concentration of 0.1% v/v. […] Degradation data was plotted and analysed using Prism (Graphpad, version 8), where bars are mean±SEM of three independent experiments.

Where only a bound is given, the exact number is not on record here.

Usually DC50 stands for the concentration giving 50% degradation. The term Dmax denotes the greatest extent of degradation seen.

Sequence of Brd2 (P25440 whole entry): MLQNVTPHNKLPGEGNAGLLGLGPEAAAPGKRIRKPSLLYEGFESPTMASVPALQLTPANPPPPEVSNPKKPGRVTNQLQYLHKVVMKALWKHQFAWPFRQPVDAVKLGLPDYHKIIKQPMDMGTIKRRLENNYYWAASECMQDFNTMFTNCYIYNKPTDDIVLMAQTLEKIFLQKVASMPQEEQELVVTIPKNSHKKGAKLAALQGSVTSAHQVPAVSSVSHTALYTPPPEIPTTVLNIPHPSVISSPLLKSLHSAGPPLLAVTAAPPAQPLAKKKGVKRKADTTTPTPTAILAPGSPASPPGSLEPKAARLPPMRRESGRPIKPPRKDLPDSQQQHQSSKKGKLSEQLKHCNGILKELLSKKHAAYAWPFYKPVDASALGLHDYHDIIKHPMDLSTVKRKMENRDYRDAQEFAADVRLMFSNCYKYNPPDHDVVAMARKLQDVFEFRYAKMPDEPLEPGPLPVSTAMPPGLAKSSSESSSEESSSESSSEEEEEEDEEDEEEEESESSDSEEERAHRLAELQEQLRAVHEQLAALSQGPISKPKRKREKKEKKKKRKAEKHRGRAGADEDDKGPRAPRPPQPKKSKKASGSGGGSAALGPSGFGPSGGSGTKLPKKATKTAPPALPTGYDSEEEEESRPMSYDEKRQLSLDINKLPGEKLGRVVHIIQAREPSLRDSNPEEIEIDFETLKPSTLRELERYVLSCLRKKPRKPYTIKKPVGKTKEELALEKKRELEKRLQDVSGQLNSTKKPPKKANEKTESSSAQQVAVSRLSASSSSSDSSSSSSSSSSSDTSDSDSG

At Brd2 (HEK293, Brd2, 4 h), `Cc1sc2c(c1C)C(c1ccc(Cl)cc1)=N[C@@H](CC(=O)NCCCCNC(=O)c1cc(S)c3ncc(C(=O)NCCc4nccs4)cc3c1)c1nnc(C)n1-2` [Example 11JQ7] gave a DC50 of 51 to 500 nM and a Dmax of no less than 71%. At Brd2 (HeLa, Brd2, 4 h), this compound displayed a DC50 of no less than 501 nM and a Dmax of no less than 71%. The “cytotoxicity profile / anti-proliferative effect (FIG. 8)” value in the data set with MV4-11 cells was “distinct from JQ1 and inactive 11JQ18”. On Brd4 (L), the Dmax was determined as 100%, the “Abs. T1/2” value is on record as 2.4 h and the “T1/2” value stood at 2.3 h. At Brd4 (S), the Dmax came to 100%, the “Abs. T1/2” value was 3.1 h and the “T1/2” value was determined as 3 h.
In the case of `Cc1sc2c(c1C)C(c1ccc(Cl)cc1)=N[C@@H](CC(=O)NCCOCCNC(=O)c1cc(SC(=O)c3ccccc3)c3ncc(C(=O)NCCc4nccs4)cc3c1)c1nnc(C)n1-2` [Example 11JQ15], the “Brd4 levels (FIG. 3)” value on Brd4 is “significant depletion of Brd4 levels”. The DC50 on Brd2 (HEK293, Brd2, 4 h) lay in the range of 51 to 500 nM; at Brd2 (HeLa, Brd2, 4 h), 51 to 500 nM. The Dmax on Brd2 (HEK293, Brd2, 4 h) is 26 to 50%; on Brd2 (HeLa, Brd2, 4 h) it was 26 to 50%; at Brd4 (L), 90%; on Brd4 (S) it was 90%. The “Abs. T1/2” value at Brd4 (L) is recorded as 4.3 h; at Brd4 (S) it was 3.3 h. Besides, the “T1/2” value on Brd4 (L) is listed as 3.5 h; at Brd4 (S), 2.8 h.
At Brd2 (HEK293, Brd2, 4 h), `Cc1sc2c(c1C)C(c1ccc(Cl)cc1)=N[C@@H](CC(=O)NCCCCNC(=O)c1cc(SC(=O)c3ccccc3)c3ncc(C(=O)NCCc4nccs4)cc3c1)c1nnc(C)n1-2` [Example 11JQ16] gave a DC50 of 51 to 500 nM and a Dmax of no less than 71%. Further, at Brd2 (HeLa, Brd2, 4 h), the DC50 was in the range of 51 to 500 nM and the Dmax lay within 51 to 70%. Moreover, in the data set with MV4-11 cells, the “cytotoxicity profile / anti-proliferative effect (FIG. 8)” value is “distinct from JQ1 and inactive 11JQ18”.

Values taken from patent US11925690B2, “Bifunctional molecules for targeting Rpn11” (AMPHISTA THERAPEUTICS LTD, priority 2018, dated 2024).
